The source of these data is patent US20250236617A1, “BICYCLIC TETRAHYDROTHIAZEPINE DERIVATIVES” (Hoffmann-La Roche Inc., priority 2022, published 2025).

Structures are written as SMILES.

Assay [1] has as its system primary human T-cells. The assay is described as follows: IL2 secretion measurements in CD3-stimulated T-cells. The format is cell-based. The settings on record: CD3 condition; for Emax IL2 (% activation): 24 hours, 20 μM reference compound A1 = 100%; for EC50: Homo sapiens, T-cell, IL2 secretion after 24 hours, read-out: Tcell IL2 CD3 EC50. The essentials: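 Expanded primary human T-cells (100 k/well, RPMI + 5% human serum) on plate-bound anti-CD3 (donor-titrated) or PBS counter-screen wells, 5–6 pt dose response from 20 or 10 μM top (dilution factor 3.333), 0.2% DMSO final. IL-2 in 24 h supernatant by ProQuantum immunoassay or ELISA. Normalised to DMSO (0%) and 20 μM reference A1 (100%); EC50 and Emax from sigmoidal fit.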

Assay [2] concerns primary human T-cells. The experiment in a line: T-cell proliferation assay (CellTiter-Glo). The format is cell-based. The settings on record: CD3 condition; for EC50: Homo sapiens, T-cell, 120 h, proliferation after 5 days, CellTiter-Glo, read-out: Tcell Proliferation CD3 EC50; for Emax proliferation (% activation): 5 days, 20 μM reference compound A1 = 100%. (Cellular ATP, detected with luciferase, serves as a proxy for viable cell number.)

Consider `CC(C)(C)c1cncc(-c2cc3c(cc2F)S(=O)(=O)C[C@H](N)C(=O)N3Cc2ccc(Cl)cc2)c1` [Example 2, (3R)-3-amino-7-(5-tert-butyl-3-pyridyl)-5-[(4-chlorophenyl)methyl]-8-fluoro-1,1-dioxo-2,3-dihydro-1λ6,5-benzothiazepin-4-one], for which, in the assay on primary human T-cells [1], the “Emax IL2 (% activation)” value was 109 % activation and the EC50 was 459 nM. Also, the EC50 in the assay with primary human T-cells [2] is 81 nM.

`CC(C)(C)c1cnnc(-c2cc3c(cc2F)S(=O)(=O)C[C@H](N)C(=O)N3Cc2ccc(Cl)cc2)n1` [Example 11, (3R)-3-amino-7-(5-tert-butyl-1,2,4-triazin-3-yl)-5-[(4-chlorophenyl)methyl]-8-fluoro-1,1-dioxo-2,3-dihydro-1λ6,5-benzothiazepin-4-one]: the “Emax IL2 (% activation)” value with primary human T-cells [1] came out at 79 % activation. The EC50 in the assay on primary human T-cells [1] is 119 nM; with primary human T-cells [2], 90 nM.

As for `CC(C)(C#N)c1cncc(-c2cc3c(cc2F)S(=O)(=O)C[C@H](N)C(=O)N3Cc2ccc(-c3noc(C(F)(F)F)n3)cc2)c1` [Example 23, 2-[5-[(3R)-3-amino-8-fluoro-1,1,4-triketo-5-[4-[5-(trifluoromethyl)-1,2,4-oxadiazol-3-yl]benzyl]-2,3-dihydro-1λ6,5-benzothiazepin-7-yl]-3-pyridyl]-2-methyl-propionitrile], in the assay on primary human T-cells [1], the “Emax IL2 (% activation)” value amounted to 213 % activation and the EC50 amounted to 3540 nM. Also, in the assay on primary human T-cells [2], the “Emax proliferation (% activation)” value was 204 % activation and the EC50 is 933 nM.

Consider `CC(C)(c1cncc(-c2cc3c(cc2F)S(=O)(=O)C[C@H](N)C(=O)N3Cc2ccc(-c3noc(C(F)(F)F)n3)cc2)c1)S(C)(=O)=O` [Example 25, (3R)-3-amino-8-fluoro-1,1-diketo-7-[5-(1-mesyl-1-methyl-ethyl)-3-pyridyl]-5-[4-[5-(trifluoromethyl)-1,2,4-oxadiazol-3-yl]benzyl]-2,3-dihydro-1λ6,5-benzothiazepin-4-one], for which, in the assay on primary human T-cells [1], the “Emax IL2 (% activation)” value is reported as 168 % activation and the EC50 was determined as 4520 nM. Moreover, in the assay with primary human T-cells [2], the “Emax proliferation (% activation)” value was 120 % activation and the EC50 stood at 526 nM.

`COc1ccc(-c2ccc(CN3C(=O)[C@@H](N)CS(=O)(=O)c4cc(F)c(-c5cnc(C)c(C)c5)cc43)cc2)cc1` [Example 28, (3R)-3-amino-7-(5,6-dimethyl-3-pyridyl)-8-fluoro-5-[[4-(4-methoxyphenyl)phenyl]methyl]-1,1-dioxo-2,3-dihydro-1λ6,5-benzothiazepin-4-one]: in the assay with primary human T-cells [1], the “Emax IL2 (% activation)” value is listed as 237 % activation and the EC50 amounted to 763 nM. Besides, in the assay with primary human T-cells [2], the “Emax proliferation (% activation)” value is 155 % activation and the EC50 turned out to be 81 nM.
